Test results: US20140051679A1, “KINASE INHIBITORS AND METHOD OF TREATING CANCER WITH SAME” (UNIVERISTY HEALTH NETWORKS, priority 2011, published 2014)
pIC50: −log10 of the molar value.

Experiments:
[1] = molecular target: T1, human TTK (Homo sapiens, UniProt P33981); experiment: TTK inhibition assay (indirect ELISA); format: biochemical; conditions: GST-TTK 0.68 nM, 16 μM ATP; read-out: IC50 Ranges TTK
T1 construct: amino terminal GST fusion of full length human TTK; purchased Invitrogen
T1 sequence (P33981 1-857): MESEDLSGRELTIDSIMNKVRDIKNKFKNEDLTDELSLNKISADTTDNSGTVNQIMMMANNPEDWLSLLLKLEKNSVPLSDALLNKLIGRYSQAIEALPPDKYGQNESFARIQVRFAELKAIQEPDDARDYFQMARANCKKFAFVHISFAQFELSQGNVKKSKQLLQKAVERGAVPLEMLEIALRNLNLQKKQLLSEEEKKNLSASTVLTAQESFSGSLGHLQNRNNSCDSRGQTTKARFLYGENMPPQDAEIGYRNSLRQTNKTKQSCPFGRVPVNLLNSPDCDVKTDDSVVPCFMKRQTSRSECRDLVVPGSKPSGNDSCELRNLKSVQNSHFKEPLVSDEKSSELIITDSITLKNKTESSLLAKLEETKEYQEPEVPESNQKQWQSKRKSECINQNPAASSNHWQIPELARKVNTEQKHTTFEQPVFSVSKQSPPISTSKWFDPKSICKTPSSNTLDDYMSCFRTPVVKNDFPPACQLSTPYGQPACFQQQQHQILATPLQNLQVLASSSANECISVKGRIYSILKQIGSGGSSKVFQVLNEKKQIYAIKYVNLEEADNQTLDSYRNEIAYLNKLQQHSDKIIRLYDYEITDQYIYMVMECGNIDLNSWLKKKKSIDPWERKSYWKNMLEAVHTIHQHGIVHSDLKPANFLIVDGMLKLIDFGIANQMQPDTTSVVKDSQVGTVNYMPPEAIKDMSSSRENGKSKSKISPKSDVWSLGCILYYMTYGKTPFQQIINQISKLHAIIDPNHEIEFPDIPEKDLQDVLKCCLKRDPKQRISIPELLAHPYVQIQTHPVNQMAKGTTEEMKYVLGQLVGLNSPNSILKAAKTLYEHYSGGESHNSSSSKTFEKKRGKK

[2] = molecular target: T2, human PLK4 (Homo sapiens, UniProt O00444); experiment: PLK4 inhibition assay (indirect ELISA); format: biochemical; conditions: GST-PLK4 4 nM, 15 μM ATP; read-out: IC50 Ranges PLK4
T2 construct: amino terminal GST fusion of residues 1-391 of human PLK4; made in house; host or cells: E. coli
T2 sequence (O00444 1-391): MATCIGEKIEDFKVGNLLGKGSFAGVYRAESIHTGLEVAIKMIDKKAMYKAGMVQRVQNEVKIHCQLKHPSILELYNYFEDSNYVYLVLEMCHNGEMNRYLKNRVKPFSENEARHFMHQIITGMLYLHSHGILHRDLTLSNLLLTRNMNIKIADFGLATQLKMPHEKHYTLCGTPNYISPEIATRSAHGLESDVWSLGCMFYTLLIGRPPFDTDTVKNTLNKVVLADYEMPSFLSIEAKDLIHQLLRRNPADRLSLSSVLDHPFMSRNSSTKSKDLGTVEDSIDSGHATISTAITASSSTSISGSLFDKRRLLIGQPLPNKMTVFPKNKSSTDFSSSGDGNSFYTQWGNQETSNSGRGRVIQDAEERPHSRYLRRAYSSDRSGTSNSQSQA
How it was run: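 Dephosphorylated GST-tagged human PLK4 (residues 1-391, E. coli), 4 nM, preincubated 15 min with compound, then reacted 30 min with 15 μM ATP on MBP-coated plates (50 mM HEPES pH 7.5, 10 mM MgCl2, 0.01% Brij 35). Phospho-MBP detected by antibody ELISA at 450 nm. Tested at 10 μM or 10-point titrations; IC50 from 4-parameter logistic fit.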

[3] = molecular target: T3, Aurora B (Homo sapiens, UniProt Q96GD4); experiment: Aurora B inhibition assay (Z-Lyte); format: biochemical; conditions: 28 nM Aurora B, 128 μM ATP; read-out: IC50 Ranges Aurora B
T3 construct: purchased Invitrogen PV3970
Procedure: Aurora B inhibition was determined using the Z-Lyte assay kit from Invitrogen. The assay was performed using the recommended manufacturer's instructions with 128 μM ATP and 28 nM Aurora B (Invitrogen cat #PV3970). The % inhibition values were determined according to the manufacturer's directions and IC50 values were obtained using a non-linear 4 point logistic curve fit (XLfit4, IDBS)

[4] = tested on: MDA-MB-231 breast cancer cells; experiment: Cell growth inhibition, Sulforhodamine B assay, MDA-MB-231; format: cell-based; conditions: Homo sapiens, 120 h, 5 days culture, SRB assay, read-out: Cell Line GI50 Range MDA-MB-231
[5] = tested on: MDA-MB-468 breast cancer cells; experiment: Cell growth inhibition, Sulforhodamine B assay, MDA-MB-468; format: cell-based; conditions: Homo sapiens, 120 h, 5 days culture, SRB assay, read-out: Cell Line GI50 Range MDA-MB-468
[6] = tested on: HCT116 colon cancer cells; experiment: Cell growth inhibition, Sulforhodamine B assay, HCT116; format: cell-based; conditions: Homo sapiens, HCT-116, 120 h, 5 days culture, SRB assay, read-out: Cell Line GI50 Range HCT116
[7] = tested on: HT29 colon cancer cells; experiment: Cell growth inhibition, Sulforhodamine B assay, HT29; format: cell-based; conditions: Homo sapiens, HT-29, 120 h, 5 days culture, SRB assay, read-out: Cell Line GI50 Range HT29
[8] = tested on: PA-1 ovarian cancer cells; experiment: Cell growth inhibition, Sulforhodamine B assay, PA-1; format: cell-based; conditions: 120 h, 5 days culture, SRB assay, read-out: Cell Line GI50 Range PA-1
[9] = tested on: OVCAR-3 ovarian cancer cells; experiment: Cell growth inhibition, Sulforhodamine B assay, OVCAR-3; format: cell-based; conditions: Homo sapiens, 120 h, 5 days culture, SRB assay, read-out: Cell Line GI50 Range OVCAR-3
Procedure: Breast cancer cells (MDA-MB-231, MDA-MB-468), colon cancer cells (HCT116, HT29) and ovarian cancer cells (PA-1, OVCAR-3) were seeded (1000 to 4000 in 80 μl per well depending on the cell growth rate) into 96 well plates 24 hours before compound overlay. Compounds were prepared as 10 mM stock solutions in 100% DMSO which were diluted with DMEM (Dulbecco's Modified Eagle's Medium) cell growth Medium (Invitrogen, Burlington, ON, Canada) containing 10% FBS (Fetal Bovine Serum) to concentrations ranging from 50 nM to 250 μM. Aliquots (20 μl) from each concentration were overlaid to 80 μl of the pre-seeded cells in the 96 well plates to make final concentrations of 10 nM to 50 μM. The cells were cultured for 5 days before the Sulforhodamine B assay (SRB) was performed to determine the compound's cell growth inhibition activity.
Sulforhodamine B (purchased from Sigma, Oakville, ON, Canada) is a water-soluble dye that binds to the basic amino acids of the cellular proteins. Thus, colorimetric measurement of the bound dye provides an estimate of the total protein mass that is related to the cell number. the cells are fixed in situ by gently aspirating off the culture media and adding 50 μl ice cold 10% Trichloroacetic Acid (TCA) per well and incubate at 4° C. for 30-60 min, The plates are washed with water five times and allowed to air dry for 5 min. Addition of 50 μl 0.4% (w/v) SRB solution in 1% (v/v) acetic acid to each well and incubatation for 30 min at RT completes the staining reaction. Following staining, plates are washed four times with 1% acetic acid to remove unbound dye and then allowed to air dry for 5 min. The stain is solubilized with 100 μl of 10 mM Tris pH 10.5 per well. Absorbance is read at 570 nm.
The percentage (%) of relative growth inhibition was calculated by comparing to DMSO treated only cells (100%). […] The GI50 was calculated using GraphPad PRISM software (GraphPad Software, Inc., San Diego, Calif., USA).

T3 sequence (Q96GD4 whole entry): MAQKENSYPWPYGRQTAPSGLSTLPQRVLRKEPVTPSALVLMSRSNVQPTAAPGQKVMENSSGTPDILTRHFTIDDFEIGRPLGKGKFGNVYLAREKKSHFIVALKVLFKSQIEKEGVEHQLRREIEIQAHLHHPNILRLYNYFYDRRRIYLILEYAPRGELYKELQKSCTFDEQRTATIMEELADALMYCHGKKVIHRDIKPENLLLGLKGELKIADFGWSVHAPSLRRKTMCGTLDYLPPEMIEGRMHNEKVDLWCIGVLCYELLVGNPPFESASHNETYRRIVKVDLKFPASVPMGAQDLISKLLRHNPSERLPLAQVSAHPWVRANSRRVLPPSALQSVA

`CN1CCC(Oc2ccc(-c3n[nH]c4ccc(C(=O)NCc5ccccc5CN5CCOCC5)cc34)cc2)CC1` [Example A109, 3-(4-(1-Methylpiperidin-4-yloxy)phenyl)-N-(2-(morpholinomethyl)benzyl)-1H-indazole-5-carboxamide] gave a pIC50 [1] of at least 5.30, a pIC50 [2] of at least 5.30 and a pIC50 [3] of at least 5.30. It also gave a GI50 [4] of at most 5 µM, a GI50 [5] of at most 5 µM and a GI50 [6] of at most 5 µM. The GI50 [7] was at most 5 µM, the GI50 [8] was at most 5 µM and the GI50 [9] was at most 5 µM.

`CC(C)(O)C1CCN(c2ccc(-c3n[nH]c4ccc(C(=O)NC(c5ccccc5)C5CC5)cc34)cc2)CC1` (stereo not drawn) [Example A112, N-(cyclopropyl(phenyl)methyl)-3-(4-(4-(2-hydroxypropan-2-yl)piperidin-1-yl)phenyl)-1H-indazole-5-carboxamide] gave a pIC50 [1] of at least 5.30, a pIC50 [2] of at least 5.30 and a pIC50 [3] of at least 5.30. It also gave a GI50 [4] of at most 5 µM, a GI50 [5] of at most 5 µM and a GI50 [6] of at most 5 µM. For the same compound, the GI50 [7] was at most 5 µM, the GI50 [8] was at most 5 µM and the GI50 [9] was at most 5 µM.

Work on `CN1CCC(Oc2ccc(-c3n[nH]c4ccc(NC(=O)C(c5ccsc5)N5CCCC5)cc34)cc2N(C)C)CC1` (stereo not drawn) [Example A113, N-(3-(3-(dimethylamino)-4-((1-methylpiperidin-4-yl)oxy)phenyl)-1H-indazol-5-yl)-2-(pyrrolidin-1-yl)-2-(thiophen-3-yl)acetamide] yielded a pIC50 [1] of at least 5.30, a pIC50 [2] of at least 5.30 and a pIC50 [3] of at least 5.30. It also gave a GI50 [4] of at most 5 µM, a GI50 [5] of at most 5 µM and a GI50 [6] of at most 5 µM. It also gave a GI50 [7] of at most 5 µM, a GI50 [8] of at most 5 µM and a GI50 [9] of at most 5 µM.

`CCc1cccc(CC)c1NC(=O)Nc1ccc2[nH]nc(-c3ccc(C4CN(C)CCO4)cc3)c2c1` (stereo not drawn) [Example A124, 1-(2,6-diethylphenyl)-3-(3-(4-(4-methylmorpholin-2-yl)phenyl)-1H-indazol-5-yl)urea] was tested, and the pIC50 [1] was at least 5.30, the pIC50 [2] was at least 5.30 and the pIC50 [3] was at least 5.30. For the same compound, the GI50 [4] was at most 5 µM, the GI50 [5] was at most 5 µM and the GI50 [6] was at most 5 µM. For the same compound, the GI50 [7] was at most 5 µM, the GI50 [8] was at most 5 µM and the GI50 [9] was 20 to 50 µM.

For `CN1CCC(Oc2ccc(-c3n[nH]c4ccc(C(=O)N[C@@H](CCO)c5ccccc5)cc34)cc2)CC1` [Example A125, (S)—N-(3-hydroxy-1-phenylpropyl)-3-(4-((1-methylpiperidin-4-yl)oxy)phenyl)-1H-indazole-5-carboxamide], the pIC50 [1] was at least 5.30, the pIC50 [2] was at least 5.30 and the pIC50 [3] was at least 5.30. The GI50 [4] was at most 5 µM, the GI50 [5] was at most 5 µM and the GI50 [6] was at most 5 µM. The GI50 [7] was at most 5 µM, the GI50 [8] was at most 5 µM and the GI50 [9] was at most 5 µM.

Compound `O=CN1CCC(Oc2ccc(-c3n[nH]c4ccc(C(=O)NC(c5ccccc5)C5CC5)cc34)cc2)CC1` (stereo not drawn) [Example A126, N-(cyclopropyl(phenyl)methyl)-3-(4-((1-formylpiperidin-4-yl)oxy)phenyl)-1H-indazole-5-carboxamide] has a pIC50 [1] of at least 5.30, a pIC50 [2] of at least 5.30 and a pIC50 [3] of at least 5.30. For the same compound, the GI50 [4] was at most 5 µM, the GI50 [5] was at most 5 µM and the GI50 [6] was at most 5 µM. It also gave a GI50 [7] of at most 5 µM, a GI50 [8] of at most 5 µM and a GI50 [9] of at most 5 µM.

With `CN1CCOC(c2ccc(-c3n[nH]c4ccc(C(=O)NC(c5ccccc5)C5CC5)cc34)cc2)C1` (stereo not drawn) [Example A139, N-(cyclopropyl(phenyl)methyl)-3-(4-(4-methylmorpholin-2-yl)phenyl)-1H-indazole-5-carboxamide] the pIC50 [1] was at least 5.30, the pIC50 [2] was at least 5.30 and the pIC50 [3] was at least 5.30. It also gave a GI50 [4] of at most 5 µM, a GI50 [5] of at most 5 µM and a GI50 [6] of at most 5 µM. It also gave a GI50 [7] of at most 5 µM, a GI50 [8] of at most 5 µM and a GI50 [9] of at most 5 µM.

Work on `Cc1ccccc1C(NC(=O)c1ccc2[nH]nc(-c3ccc(OC4CCN(C)CC4)cc3)c2c1)C(C)C` (stereo not drawn) [Example A143, N-(2-methyl-1-(o-tolyl)propyl)-3-(4-((1-methylpiperidin-4-yl)oxy)phenyl)-1H-indazole-5-carboxamide] yielded a pIC50 [1] of at least 5.30, a pIC50 [2] of at least 5.30 and a pIC50 [3] of at least 5.30. It also gave a GI50 [4] of at most 5 µM, a GI50 [5] of at most 5 µM and a GI50 [6] of at most 5 µM. For the same compound, the GI50 [7] was at most 5 µM, the GI50 [8] was at most 5 µM and the GI50 [9] was at most 5 µM.
